Our source for the IC50 and melting point values is patent publication US20080194551A1, “Acetylene Derivatives” (priority 2005, published 2008).

Series [1] concerns the target T1, hmGluR5 (Homo sapiens, UniProt P41594).
T1 construct: expressed in transfected cells
Briefly: Inhibition of quisqualate-induced inositol phosphate turnover in hmGluR5 expressing cells. In kind it is cell-based. As to conditions: agonist quisqualate, read-out: IC50 concentration, inhibition of quisqualate-induced inositol phosphate turnover. An excerpt:
This can be determined in vitro for example at recombinant human metabotropic glutamate receptors, especially PLC-coupled subtypes thereof such as mGluR5, using different procedures like, for example, measurement of the inhibition of the agonist induced elevation of intracellular Ca^2+ concentration in accordance with L. P. Daggett et al., Neuropharm. Vol. 34, pages 871-886 (1995), P. J. Flor et al., J. Neurochem. Vol. 67, pages 58-63 (1996) or by determination to what extent the agonist induced elevation of the inositol phosphate turnover is inhibited as described by T. Knoepfel et al., Eur. J. Pharmacol. Vol. 288, pages 389-392 (1994), L. P. Daggett et al., Neuropharm. Vol. 67, pages 58-63 (1996) and references cited therein. Isolation and expression of human mGluR subtypes are described in U.S. Pat. No. 5,521,297. Selected agents of the invention show IC50 values for the inhibition of the agonist (e.g. glutamate or quisqualate) induced elevation of intracellular Ca2+ concentration or the agonist (e.g. glutamate or quisqualate) induced inositol phosphate turnover, measured in recombinant cells expressing hmGluR5a of about 1 nM to about 50 μM.
4-(3-Chloro-phenylamino)-1-(3-chloro-phenylethynyl)-cyclohexanol inhibits the quisqualate-induced inositol phosphate turnover in hmGluR5 expressing cells with an IC50 concentration of 4000 nM.

T1 sequence (P41594 21-1180 isoform P41594-2 limits assumed): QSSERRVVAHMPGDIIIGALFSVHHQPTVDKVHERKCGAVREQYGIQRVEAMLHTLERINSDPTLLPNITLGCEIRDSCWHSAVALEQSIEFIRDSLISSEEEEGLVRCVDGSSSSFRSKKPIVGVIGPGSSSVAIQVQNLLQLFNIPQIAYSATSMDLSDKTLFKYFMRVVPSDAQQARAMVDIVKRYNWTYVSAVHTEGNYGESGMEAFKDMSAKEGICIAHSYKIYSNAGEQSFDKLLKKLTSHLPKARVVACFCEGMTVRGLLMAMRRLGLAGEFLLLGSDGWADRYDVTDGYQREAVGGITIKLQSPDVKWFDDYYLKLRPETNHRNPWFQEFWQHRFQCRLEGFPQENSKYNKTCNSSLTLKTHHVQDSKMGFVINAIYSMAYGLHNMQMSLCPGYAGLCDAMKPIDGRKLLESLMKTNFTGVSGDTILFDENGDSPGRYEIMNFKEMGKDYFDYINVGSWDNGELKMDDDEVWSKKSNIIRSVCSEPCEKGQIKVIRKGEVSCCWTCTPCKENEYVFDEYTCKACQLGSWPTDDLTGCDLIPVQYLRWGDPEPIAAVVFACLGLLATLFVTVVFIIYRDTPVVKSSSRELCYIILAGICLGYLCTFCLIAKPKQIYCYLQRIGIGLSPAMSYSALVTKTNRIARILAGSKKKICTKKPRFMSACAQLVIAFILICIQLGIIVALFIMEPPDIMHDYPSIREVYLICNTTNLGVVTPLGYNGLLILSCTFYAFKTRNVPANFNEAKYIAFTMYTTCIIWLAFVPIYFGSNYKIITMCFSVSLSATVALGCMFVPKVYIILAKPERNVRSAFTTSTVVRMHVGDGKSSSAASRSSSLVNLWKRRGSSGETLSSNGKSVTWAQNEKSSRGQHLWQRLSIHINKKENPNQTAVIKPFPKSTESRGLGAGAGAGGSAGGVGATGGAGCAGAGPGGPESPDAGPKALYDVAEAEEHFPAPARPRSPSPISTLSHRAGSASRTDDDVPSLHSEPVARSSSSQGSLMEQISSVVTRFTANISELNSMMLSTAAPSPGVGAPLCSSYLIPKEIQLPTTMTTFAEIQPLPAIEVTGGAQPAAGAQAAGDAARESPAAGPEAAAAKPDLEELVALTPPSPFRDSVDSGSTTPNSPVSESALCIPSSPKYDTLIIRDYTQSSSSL

Consider `OC1(C#Cc2cccc(Cl)c2)CCC(Nc2cccc(Cl)c2)CC1` (centres unmarked) [Example 2.2, 4-(3-Chloro-phenylamino)-1-(3-chloro-phenylethynyl)-cyclohexanol], for which the IC50 in series [1] was 4 µM.

On to `OC1(C#Cc2cccc(Cl)c2)CCC(Nc2cc(Cl)cc(Cl)c2)CC1` (centres unmarked) [Example 2.6, 4-(3,5-Dichloro-phenylamino)-1-(3-chloro-phenylethynyl)-cyclohexanol], for which the melting point (usually the temperature of the solid-liquid transition) was 145 to 149 °C.
